How the values were obtained:
Format in all cases: cell-based
[1] = system: human pancreatic islets from healthy subjects (HI); assay: Human pancreatic islet treatments and qPCR, healthy islets (HI); conditions: cells from normal human subjects, STS medium with IGF-1 40 ng/ml
Description: (§1) To investigate how the fasting mimicking conditions affect Ngn3 expression and β-cell functions in human pancreatic cells, we performed ex vivo experiments using primary human pancreatic islets (FIG. 6A). Briefly, the pancreatic islets from healthy and T1D subjects (HI and T1DI, respectively) were cultured according to the manufacturer's instructions. The cultured islets were then treated with serum from subjects enrolled in a clinical trial testing the effects of a low protein and low calorie FMD lasting 5 days (NCT02158897)^17. Serum samples were collected at baseline and at day 5 of the fasting mimicking diet in 5 subjects.
(§2) In cells from normal human subjects, these effects were reversed by IGF-1 treatment (FIG. 6G). […]
(§3) Cells were treated for 36 h with: Standard medium: Celprogen, M35002-045 for healthy islets and M35001-035 for T1D islets). […] Total RNA was extracted using RNeasy Mini kit (Qiagen) according to the manufacturer's instructions and quantified with the use of the Nanodrop system (Thermo Scientific, Waltham, Mass., USA). […] The expression level were analyzed by quantitative real-time polymerase chain reaction (PCR) on a Roche LightCycler 480II . Gene expression was quantified using the comparative Ct method.

[2] = system: human pancreatic islets from T1D subjects (T1DI); assay: Human pancreatic islet treatments and qPCR, T1D islets (T1DI)
Description: as §1, §2, §3

[3] = system: PKA; assay: PKA activity in human pancreatic islets; conditions: STS medium with IGF-1 40 ng/ml
Description: It also dampened the activity of mTOR, which is a key mediator of amino acid signaling (FIG. 6I). To further investigate the role of these nutrient sensing signaling pathways in regulating the expression of lineage markers (i.e. Sox2 and Ngn3), we tested the role of the Tor-S6K and PKA pathways, which function downstream of IGF-1, in the reprogramming of pancreatic cells. Human pancreatic islets cultured in standard medium were treated with rapamycin, which inhibits mTOR, and H89, which inhibits PKA. mTOR and PKA were implicated by our group and others in the regeneration of other cell types (Cheng et al., 2014; Yilmaz et al., 2012).
as §3
PKA activity was measured using the PKA kinase activity kit (Enzo Life Science, Inc. Farmingdale, N.Y., USA) according to manufacturer instructions.

Molecule | effect on STS-induced expression of Sox2, Ngn3 and insulin [1] | effect on STS-increased insulin and Sox 2 gene expression ([2]; human T1D cells, STS medium with IGF-1 40 ng/ml) | effect on STS-reduced PKA activity ([3]; T1D human islets) | effect on STS-reduced PKA activity ([3]; healthy human islets) | expression of lineage markers Sox2 and Ngn3 ([2]; T1DI in standard medium, 36 h, Rapamycin 20 nM, H89 20 uM)
IGF-1: IGF1 (40 ng/ml) (ProSpec), growth factor added to STS medium | reversed | reversed | reversed | reversed | 
O=S(=O)(NCCNC/C=C/c1ccc(Br)cc1)c1cccc2cnccc12 [H89, reference compound] |  |  |  |  | not induced

— patent publication US10660932B2, “Drug combinations and methods to stimulate embryonic-like regeneration to treat diabetes and other diseases” (UNIVERSITY OF SOUTHERN CALIFORNIA, priority 2016, dated 2020)
